According to patent US11492636B2, “Modified bialaphos resistance acetyltransferase compositions and uses thereof” (Whitehead Institute for Biomedical Research, priority 2016, dated 2022):
Where “and” joins values, the source holds several entries; their conditions need not be identical. Identical values can stand only once.

Biological target: T1, BAR (Streptomyces hygroscopicus, UniProt P16426)
T1 construct: made in house; host or cells: E. coli BL21(DE3)
Assay: In vitro enzyme kinetic assays of recombinant BAR against native and non-native substrates
Type: biochemical
Details: for in vitro substrate of BAR (N-acetyltransferase activity): recombinant BAR, up to 8.4 mM substrate; for KM values of BAR against aminoadipate and tryptophan (estimated): substrates reached solubility limit before saturation
Source text: The BAR coding sequence was amplified by PCR (KaPa HiFi HotStart polymerase; KaPa Biosystems) from genomic DNA extracted from homozygous plants of the SAIL line SAIL_1165_B02 using primers SAIL_BAR_F_pPROEX and SAIL_BAR_R_pPROEX (see Table 3) and then cloned into pProEX Hta (Invitrogen) via EcoRI and HindIII resulting in a 6×His-BAR fusion construct. 6×His-BAR was expressed in E. coli BL21(DE3) grown in Luria-Bertani medium. At an optical density at 600 nm of 0.6, protein expression was induced with 1.0 mM isopropylthio-β-galactoside (IPTG), and cells were grown at 37° C. for 2.5 h. Cells from a 200 mL culture were harvested by centrifugation and resuspended in 8 mL binding buffer (20 mM HEPES-KOH pH 7.4, 0.5 M NaCl, 10% (v/v) glycerol, 20 mM imidazole) supplemented with 3 U mL^−1 DNase (Promega), 2 mM MgCl2 and 1/10 of a tablet containing a protease inhibitor cocktail (Complete; Roche Applied Science). Cell lysis was performed by use of a high-pressure cell breaker (Cell Disruption System; Constant Systems) at a pressure of 150 MPa. All the following steps were carried out at 4° C. The lysate was centrifuged (16,000 g, 20 min) and a 50% (v/v) slurry of Ni^2+-ion charged agarose beads (Ni Sepharose 6 Fast Flow; GE Healthcare) in binding buffer was added to the supernatant (0.25 mL 50% slurry per mL of supernatant). The mix was incubated for 1 h with slight shaking and then loaded on a Poly-Prep® chromatography column (0.8×4 cm; Bio-Rad). The beads were washed with 10 mL of binding buffer and 3 mL of wash buffer (20 mM HEPES-KOH pH 7.4, 0.5 M NaCl, 10% (v/v) glycerol, 40 mM imidazole) by gravity flow before elution with 3 mL of elution buffer (20 mM HEPES-KOH pH 7.4, 0.5 M NaCl, 10% (v/v) glycerol, 500 mM imidazole). The buffer was exchanged with storage buffer (20 mM HEPES-KOH pH 7.4, 0.5 M NaCl, 10% (v/v) glycerol, 1 mM dithiothreitol) using an ultra-centrifugal filter (MWCO 10,000; Vivaspin 6, Sartorius Stedim Biotech). The purity of the protein preparation was assessed by SDS-PAGE and the concentration was determined by using a NanoDrop 2000 UV-VIS spectrometer (Thermo Scientific).
Enzyme assays were carried out in 10 mM HEPES-KOH (pH 7.4), 20 mM MgCl2, and 2 mM acetyl-CoA (Sigma-Aldrich; final volume 25 μl). Before determining the kinetics of BAR with different substrates, time-dependent activity of the purified protein was tested at substrate concentrations of 200 μM L-phosphinothricin (glufosinate ammonium, considered as a 1:1 mixture of L- and D-enantiomers; Sigma-Aldrich) or 400 μM (L-aminoadipate and L-tryptophan; Sigma-Aldrich). Reactions were initiated by the addition of purified BAR at 0.03 μM (assays with L-phosphinothricin) or 20 μM (assays with aminoadipate or tryptophan) and incubated at 25° C. for the indicated times (FIGS. 8A-8D). Reactions were stopped by the addition of three volumes of methanol supplemented with 0.5% (v/v) formic acid. Likewise, substrate concentration-dependence was determined by incubating assays for 7.5 min (assays with L-phosphinothricin) or 2 h (assays with aminoadipate or tryptophan; FIG. 3). Control assays (FIG. 3B) were performed with aminoadipate and tryptophan at 8.4 mM, but in the absence of BAR. In addition, D-tryptophan (Sigma-Aldrich) was tested as potential substrate at 8.4 mM (FIG. 3B).
In vitro assays with aminoadipate and tryptophan as substrate were analyzed by LC-MS as described above. In vitro assays with L-phosphinothricin were analyzed by LC-MS as described above, but using a normal-phase chromatography system as follows: an 150 mm amide column (ACQUITY UPLC™ BEH amide, 1.7 μm, 2.1×150 mm, Waters) was developed using LC-MS solvents (Chemie Brunschwig) with a gradient (flow rate of 0.4 mL min^−1) of solvent B (acetonitrile with 0.1% (v/v) formic acid) in solvent A (water with 0.1% (v/v) formic acid) as follows (all (v/v)): 95% for 0.5 min, 95% to 30% in 12 min, 30% for 2 min, 30% to 95% in 1 min and 95% for 5 min. […]

T1 sequence (P16426 whole entry): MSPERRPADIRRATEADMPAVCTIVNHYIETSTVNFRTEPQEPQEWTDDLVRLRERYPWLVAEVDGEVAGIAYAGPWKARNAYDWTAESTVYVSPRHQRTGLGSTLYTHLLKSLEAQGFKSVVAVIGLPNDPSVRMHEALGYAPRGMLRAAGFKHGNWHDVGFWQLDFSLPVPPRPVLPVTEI

Row | SMILES | catalytic activity of BAR toward aminoadipate compared with tryptophan (in vitro) | in vitro substrate of BAR (N-acetyltransferase activity) | KM values of BAR against aminoadipate and tryptophan (estimated) | Km (N-acetylation by recombinant BAR, Michaelis-Menten kinetics, read-out: apparent KM)
1 | NC(CCCC(=O)O)C(=O)O [aminoadipate, L-aminoadipate] | relatively higher catalytic activity | in vitro substrates of BAR | at least in the millimolar range | –
2 | N[C@@H](Cc1c[nH]c2ccccc12)C(=O)O [tryptophan, L-tryptophan] | – | in vitro substrates of BAR | at least in the millimolar range | –
3 | CP(=O)(O)CC[C@H](N)C(=O)O [phosphinothricin, reference compound] | – | – | – | ~39 µM and 39 µM
